Assay results from patent US20040033944A1, “Method of treating erectile dysfunction” (priority 1999, published 2004).
Like-named read-outs stand apart in the source and are kept apart here.

Experiments:
corporal smooth muscle = conditions: for Acetylcholine ED50 (−Log (M)) / Sodium Nitroprusside ED50 (−Log (M)): 10 days after injection, mean SEM
Method: (§1) Animals: Male New Zealand White rabbits weighing 2.5-3 kg were fed either a normal rabbit diet (n=12) or a 1% cholesterol diet (n=12) (Harland Teklab, Madison, Wis.) for a total of 7.5 weeks. […] Ten days after the injection, the rabbits were euthanized and underwent penectomy with meticulous dissection of the corpora cavernosa from the tunica albuginia. Total serum cholesterol was determined using the enzymatic method prior to the initiation of the experimental diet and on serum samples drawn immediately prior to the procedure. Animal care and handling complied with published Guidelines (Institute of Laboratory Animal Resources, Commission on Life Sciences, National Research Council. Guide for the Care and Use of Laboraiton Animals. Washington: National Academy Press (1996)).
Isometric tension studies. Two corporal strips from each animal were suspended in 5 ml capacity organ baths containing Krebs physiological salt solution (122 mmol/liter NaCl. 4.7 mmol/liter KCl, 1.2 mmol/liter MgCl2, 2.5 mmol/liter CaCl2, 15.4 mmol/liter NaHCO3, 1.2 mmol/liter KH2PO4, and 5.5 mmol/liter glucose) maintained at 37° C. and oxygenated with 95% O2 and 5% CO2. Strips were attached to an adjustable force transducer and isometric responses were recorded on a multi-channel polygraph (Myograph F-60; Physiograph MK111-S; Narco Bio-Systems, Houston, Tex.). […] All subsequent testing was then performed at the optimal resting tension for each strip. Strips were sub-maximally pre-contracted with 10^−5 M norepinephrine, and after a contractile plateau was reached, acetylcholine (10^−8 to 10^−3 M) or sodium nitroprusside (10^−8 to 10^−4 M) was added cumulatively in logarithmic increments. Relaxation in response to each agent is expressed as a percentage of the active tension generated by the 10^−5 M dose of norepinephrine and converted to percentage of maximal response at each dose. These values were plotted against the negative logarithm of the agonist dose to produce relaxation dose-response curves. Logistic regression analysis with logit transformation was performed on the cumulative dose response curves from each treatment group to determine the ED25. ED50 and ED75 for each agent (Finney, Statistical Method in Biological Assay (3 ed.). London: Charles Griffin and Company LTD, p. 349-369 (1978), Kim et al, J Urol 151:198-205 (1994)).
(§2) Statistical evaluation. Each treatment group contained 6 animals (corporal strip n=12). Data are expressed as the mean±standard error of the mean (SEM). The responses of strips from each treatment group to acetylcholine or sodium nitroprusside were compared using the independent samples T-Test. […] The ED50 (sensitivity) and the maximal response were the principal outcomes assessed for each agent, and adjusting for multiple comparisons each outcome was assessed at the 0.025 level. Secondary outcomes, including cholesterol level, and the ED25 and the ED75 for each agent were tested at the 0.05 level without adjustment for multiple comparisons.
(§3) The route of administration can affect the efficacy of treatments for erectile dysfunction, as is seen in the difference between intrauretheral and intracavernosal alprostadil. […] Ten days after injection isometric tension studies were performed on corporal tissue. Sensitivity and maximal relaxation to acetylcholine (ACH) and sodium nitroprusside (SNP) were compared between treatment groups.
(§4) Ten days after injection, their corpora cavernosa were harvested, and isometric tension studies were performed. Relaxation to acetylcholine (ACH) and sodium nitroprusside (SNP) was compared within each group.
Animals: 36 New Zealand White rabbits were fed either a normal rabbit diet (n=12) or a 1% cholesterol diet (n=24) (Harland Teklab, Madison, Wis.) for a total of 7.5 weeks.

[1] = system: trabecular smooth muscle content of corporal tissue; conditions: cholesterol-fed rabbits
Method: as §1
as §2, with “Secondary outcomes, including cholesterol level, and the ED25 and the ED75 for each agent were tested at the 0.05 level without adjustment for multiple comparisons.” left out

[2] = system: VEGF protein expression in corporal tissue; conditions: for VEGF immunoexpression: IC VEGF 0.9 mg, mean±SEM
Method: as §1, §2, §3, §4

VEGF in corporal tissue = system: VEGF in corporal tissue
Method: Animals: 36 New Zealand White rabbits were fed either a normal rabbit diet (n=12) or a 1% cholesterol diet (n=24) (Harland Teklab, Madison, Wis.) for a total of 7.5 weeks. […] Ten days after the injection, the rabbits were euthanized and underwent penectomy with meticulous dissection of the corpora cavernosa from the tunica albuginia. Total serum cholesterol was determined prior to the initiation of the experimental diet and immediately prior to the procedure.
Frozen corporal tissues were sonicated in 50 mM Tris radioimmunoprecipation assay buffer for 1 minute for protein isolation. […] The samples were quantified with a Molecular Devices Kinetic microplate reader using Apple SoftMax software. One ELISA was performed for each animal in each treatment group.
Statistical evaluation. Data are expressed as the mean standard error of the mean (SEM). […] Statistical significance was determined at the 0.05 level.

[3] = system: corpora cavernosa smooth muscle; conditions: hypercholesterolemic rabbits, three weekly intracavernosal injections of VEGF
Method: Fifteen male New Zealand White rabbits weighing 2 to 2.5 kg were used in a total of two arms in the study. […] Random serum total cholesterol levels were measured at the beginning of the study and after four weeks of the 1% cholesterol diet. At the end of four weeks, each rabbit underwent total penectomy and then was sacrificed. Each penis yielded two strips of tissue with a small amount of erectile tissue being placed in neutral buffered formalin 10%. The strips were suspended in tissue baths, and isometric tension studies were performed. Dose-response curves for norepinephrine were generated first in each strip to assess adrenergic-mediated cavernosal smooth muscle contraction. Next, dose-response curves for histamine were generated to assess histamine receptor mediated contraction of cavernosal smooth muscle. Submaximal contraction was then produced with 10^−3 concentration of norepinephrine and dose-response curves were then generated to evaluate endothelial-dependent (acetylcholine) smooth muscle relaxation. Once again, a submaximal contraction was produced using 10^−5 concentration of norepinephrine and dose response curves were then generated to evaluate endothelial-independent (sodium nitroprusside) smooth muscle relaxation.
Tissue. Cavernosal tissue procurement was performed under general anesthesia induced with Ketamine 50 mg/kg SC (Ketaset, Bristol Laboratories, Syracuse, N.Y.) and Xylazine 30 mg/kg SC (Rompun, Mobay Corp., Shawnee, Kans.). The penis was excised en bloc and placed in warm Krebs solution, where the corpora cavernosa were sharply dissected from the tunica albuginea producing a strip (approximately 0.3×0.3×0.7 cm.) from each corpus. The strips were then mounted in the oxygen tissue baths. After tissue collection, the rabbits were euthanized with an overdose of intravenous sodium pentobarbitol (100 mg/kg to effect). Care was taken throughout the procedure to minimize tissue manipulation.
Tissue Chambers. Each cavernosal strip was placed in a 25 ml tissue bath (Kent Scientific Corp.. Litchfield, Conn.). One end was hooked to a tissue holder and the other end w as hooked to a force transducer (FTO3, Grass Instruments, Quincy, Mass.) for determination of isometric tension. The bath was filled with a modified Kreb's physiologic salt solution with the following millimolar composition: NaCl 122, KCl 4.7, MgCl2 1.2, CaCl2 2.5, NaHCO3 15.4, KH2PO4 1.2. and glucose 5.5. A circulating water bath kept tissue chamber temperatures at 37C. Continuous aeration with 95% oxygen and 5% carbon dioxide maintained a pH of 7.4.
Optimal isometric tension determination. Each of the force transducers was connected to a transducer positioner enabling preload tension adjustment. Following suspension in the tissue chambers, the tension was periodically adjusted (at least every fifteen minutes) until the strip equilibrated at 0.5 gm. […] The optimal preload tension was then determined by contracting the tissue with 60 mM KCl Krebs solution (prepared by substituting 60 mM of sodium with equimolar amounts of potassium in Krebs-PSS solution) at increasing levels of preload (0.5 gm. increments). […] All subsequent testing was then performed at the determined optimal resting tension for each strip: Monitoring of tension was done with a four-channel polygraph (Grass 7D, Grass Instruments).
Isometric tension studies. The tissue was washed with Kreb's solution every fifteen minutes after each study until the tissue returned to baseline (at least one hour). Dose response curves for norepinephrine were obtained by cumulative addition of norepinephrine (10^−9 to 10^−4) in logarithmic increments.

adult rabbit penis = conditions: intracavernosal injections of VEGF
[4] = cholesterol-fed rabbits, IV VEGF 0.9 mg vs vehicle
[5] = cholesterol-fed rabbits, intracavernosal 0.9 mg VEGF at week 6, 10 days after injection, mean±SEM
[6] = cholesterol-fed rabbits, single intravenous bolus VEGF 0.9 mg vs vehicle

Question: For VEGF, which “Acetylcholine ED50 (−Log (M))” value (corporal smooth muscle; Cholesterol / IC VEGF 0.9 mg) is on record?
Answer: 4.94 0.25 −Log (M)

Question: What about the “Sodium Nitroprusside ED50 (−Log (M))” value (corporal smooth muscle; Cholesterol / IC VEGF 0.9 mg) of the same substance?
Answer: 6.36 0.16 −Log (M)

Question: What about the “Acetylcholine ED50 (−Log (M))” value (corporal smooth muscle; Cholesterol / IV VEGF 0.9 mg) of the same substance?
Answer: 6.33 0.40 −Log (M)

Question: And the “Sodium Nitroprusside ED50 (−Log (M))” value (corporal smooth muscle; Cholesterol / IV VEGF 0.9 mg)?
Answer: 6.93 0.25 −Log (M)

Question: And the “endothelium-dependent (acetylcholine) smooth muscle relaxation, effect of VEGF treatment” value (corporal smooth muscle; cholesterol-fed rabbits, IC VEGF 0.9 mg vs vehicle)?
Answer: not affected

Question: And the “SNP-mediated, direct smooth muscle relaxation, effect of IV VEGF treatment” value (corporal smooth muscle; [4])?
Answer: significantly improved

Question: And the “endothelium-dependent smooth muscle relaxation, effect of IV VEGF treatment” value (corporal smooth muscle; [4])?
Answer: augmented

Question: And the “maximal relaxation to acetylcholine” value (corporal smooth muscle; [5])?
Answer: 78.6±6.2 grams

Question: And the “maximal relaxation to sodium nitroprusside” value (corporal smooth muscle; [5])?
Answer: 113.9±6.3 grams

Question: And the “sensitivity (ED50) to acetylcholine relaxation” value (corporal smooth muscle; [5])?
Answer: 4.94±0.25 (−Log)(M)

Question: What about the “sensitivity to sodium nitroprusside relaxation at ED50” value (corporal smooth muscle; [5]) of the same substance?
Answer: 6.36±0.16 (−Log)(M)

Question: What about the “sodium nitroprusside relaxation ED75” value (corporal smooth muscle; [5]) of the same substance?
Answer: 5.75±0.16 (−Log)(M)

Question: What about the “endothelium dependent (ACH-mediated) maximal corporal smooth muscle relaxation, effect of VEGF” value (corporal smooth muscle; [6]) of the same substance?
Answer: significantly augmented

Question: What about the “endothelium independent (SNP-mediated) maximal corporal smooth muscle relaxation, effect of VEGF” value (corporal smooth muscle; [6]) of the same substance?
Answer: significantly augmented

Question: And the “sensitivity (ED50) to ACH, effect of VEGF” value (corporal smooth muscle; [6])?
Answer: enhanced

Question: And the “sensitivity (ED50) to SNP, effect of VEGF” value (corporal smooth muscle; [6])?
Answer: enhanced

Question: What about the “smooth muscle content, effect of VEGF treatment” value ([1]; IC VEGF 0.9 mg vs vehicle) of the same substance?
Answer: not affected

Question: And the “trabecular smooth muscle content” value ([1]; IC VEGF 0.9 mg, relative to normal diet, vehicle-treated = 1.0, mean±SEM)?
Answer: 0.82±0.016 arbitrary units

Question: And the VEGF immunoexpression ([2]; cholesterol-fed animals)?
Answer: 19.67±1.38 arbitrary units

Question: What about the “VEGF protein immunoexpression, effect of IV VEGF” value ([2]; cholesterol-fed animals, IV VEGF 0.9 mg vs vehicle) of the same substance?
Answer: augmented

Question: What about the VEGF immunoexpression ([2]; normal diet animals) of the same substance?
Answer: 37.6±1.12 arbitrary units

Question: What about the “VEGF expression, effect of VEGF therapy” value ([2]; single intracavernosal VEGF 0.9 mg vs vehicle) of the same substance?
Answer: augmented

Question: What about the “VEGF ELISA optical density (OD) minus background” value (VEGF in corporal tissue; cholesterol-fed animals treated with VEGF (IC)) of the same substance?
Answer: 0.168

Question: And the “VEGF ELISA optical density (OD)” value (VEGF in corporal tissue; cholesterol-fed animals, IV VEGF administration)?
Answer: 0.128

Question: And the “Acetylcholine Percent Maximal Relaxation” value [3]?
Answer: 94.5±8.41%

Question: And the “Sensitivity to Acetylcholine ED25” value [3]?
Answer: −5.48 ± 0.33

Question: What about the “Sensitivity to Acetylcholine ED75” value [3] of the same substance?
Answer: −3.50 ± 0.41

Question: What about the “Sensitivity to Sodium Nitroprusside ED75” value [3] of the same substance?
Answer: −5.52 ± 0.18

Question: And the “Sodium Nitroprusside Percent Maximal Relaxation” value [3]?
Answer: 145 ± 8.26%

Question: What about the tumescence (adult rabbit penis) of the same substance?
Answer: approximately 80%
